Patent publication US6235754A, “Methods and compositions for protecting animals and humans against attack and infestation by arthropod and helminth parasites” (American Cyanamid Company, priority 1999, dated 2001)
Like-named read-outs stand apart in the source and are kept apart here.

Test system: Ctenocephalides felis (cat flea)
Assay: Contact activity against the adult cat flea (Table I)
Assay type: in vivo
Conditions: topical
Method: This test is designed to evaluate the contact activity of test compounds against the adult cat flea. Test compounds are dissolved in 100% acetone to 300, 100, 10 and 1 ppm. 100 μL of each of these dilutions is added to the bottom of a 20 mL glass scintillation vial with a pipettor. The vial is allowed to dry under a fume hood for 15 minutes. The bottom of the vial measures 4.909 cm^2. The amount of test compound applied by each dilution equals 6.2, 2.0, 0.2 and 0.02 μg/cm^2, respectively. Newly emerged adult cat fleas are anesthetized with CO2 to immobilize, and are counted into the scintillation vials with forceps. Five fleas are placed in each vial. These tests are done in replicates of two or three so that there are 10 to 15 fleas per rate/compound. Mortality readings are taken 4 and 24 hours after placing the fleas in the vials. […] Percent mortality is then calculated for each treatment.

[1] = 4 h, read-out: 4 Hour % Mortality
[2] = 24 h, read-out: 24 Hour % Mortality

Structure (SMILES) | mortality at 0.02 µg/cm2 [1] | mortality at 0.2 µg/cm2 [1] | mortality at 2 µg/cm2 [1] | mortality at 6.2 µg/cm2 [1] | mortality at 0.02 µg/cm2 [2] | mortality at 0.2 µg/cm2 [2] | mortality at 2 µg/cm2 [2] | mortality at 6.2 µg/cm2 [2]
CCOc1ccc(C(/C(F)=C/Cc2cccc(Oc3ccccc3)c2)C2CC2)cc1 (racemic) [Compound 14, 1-[1-(p-Ethoxyphenyl)-2-fluoro-4-(m-phenoxyphenyl)-2-butenyl]cyclopropane, (R,S)-(Z)-] | 10% | 20% | 20% | 50% | 30% | 60% | 100% | 100%
CCOc1ccc(C(/C(F)=C/Cc2cccc(Oc3ccc(F)cc3)c2)C(C)C)cc1 (stereo not shown) [Compound 12, 4-(p-Ethoxyphenyl)-3-fluoro-1-[m-(p-fluorophenoxy)phenyl]-5-methyl-2-hexene, (Z)-] | 0% | 0% | 10% | 33% | 0% | 10% | 30% | 78%
F/C(=C\Cc1cccc(Oc2ccccc2)c1)C1(c2ccc(Cl)cc2)CC1 [Compound 3, 1-(p-Chlorophenyl)-1-[1-fluoro-3-(m-phenoxyphenyl)propenyl]cyclopropane, (Z)-] | 5% | 0% | 7% | 0% | 5% | 7% | 17% | 13%
CCOc1ccc(C(/C(F)=C/Cc2cccc(Oc3ccccc3)c2)C(C)C)cc1 (stereo not shown) [Compound 11, 4-(p-Ethoxyphenyl)-3-fluoro-5-methyl-1-(m-phenoxyphenyl)-2-hexene, (Z)-] | 0% | 10% | 30% | 60% | 10% | 40% | 90% | 90%
F/C(=C\Cc1cccc(Oc2ccc(F)cc2)c1)C(c1ccc(Cl)cc1)C1CC1 (stereo not shown) [Compound 13, 1-{1-(p-Chlorophenyl)-2-fluoro-4-[m-(p-fluorophenoxy)phenyl]-2-butenyl}cyclopropane, (Z)-] | 0% | 0% | 5% | 10% | 5% | 33% | 67% | 95%
CC(C)(C)C(/C(F)=C/Cc1cccc(Oc2ccccc2)c1)c1ccc(Cl)cc1 (stereo not shown) [Compound 9, 4-(p-Chlorophenyl)-3-fluoro-5-methyl-1-(m-phenoxyphenyl)-5-methyl-2-hexene, (Z)-] | 0% | 0% | 30% | 20% | 40% | 70% | 70% | 80%
CC(C)C(/C(F)=C(\F)Cc1ccc(F)c(Oc2ccccc2)c1)c1ccc(OC(F)(F)F)cc1 (stereo not shown) [Compound 17, 2,3-Difluoro-1-(4-fluoro-3-phenoxyphenyl)-5-methyl-4-[p-(trifluoromethoxy)phenyl]-2-hexene, (E)-] | 0% | 10% | 10% | 10% | 20% | 40% | 50% | 90%
CC(C)C(/C(F)=C/Cc1ccc(F)c(Oc2ccccc2)c1)c1ccc(Cl)cc1 (stereo not shown) [Compound 7, 4-(p-Chlorophenyl)-3-fluoro-1-(4-fluoro-3-phenoxyphenyl)-5-methyl-2-hexene, (Z)-] | 0% | 0% | 0% | 0% | 10% | 0% | 0% | 100%
CCOc1ccc(C(/C(F)=C/Cc2ccc(F)c(Oc3ccc(F)cc3)c2)C2CC2)cc1 (racemic) [Compound 16, 1-{1-(p-Ethoxyphenyl)-2-fluoro-4-[4-fluoro-3-(p-fluorophenoxy)phenyl]-2-butenyl}cyclopropane, (R,S)-(Z)-] | 0% | 20% | 71% | 100% | 60% | 50% | 100% | 100%
F/C(=C\Cc1cccc(Oc2ccccc2)c1)C(c1ccc(Cl)cc1)C1CC1 (stereo not shown) [Compound 6, 1-[1-(p-Chlorophenyl)-2-fluoro-4-(m-phenoxyphenyl)-2-butenyl]cyclopropane, (Z)-] | 0% | 0% | 56% | 80% | 8% | 28% | 88% | 100%
F/C(=C\Cc1ccc(F)c(Oc2ccccc2)c1)C1(c2ccc(Cl)cc2)CC1 [Compound 4, 1-(p-Chlorophenyl)-1-[1-fluoro-3-(4-fluoro-3-phenoxyphenyl)propenyl]cyclopropane, (Z)-] | 5% | 7% | 0% | 3% | 16% | 14% | 21% | 28%
CC(C)C(/C(F)=C/Cc1cccc(Oc2ccccc2)c1)c1ccc(Cl)cc1 (stereo not shown) [Compound 8, 4-(p-Chlorophenyl)-3-fluoro-5-methyl-1-(m-phenoxyphenyl)-2-hexene, (Z)-] | 0% | 0% | 0% | 0% | 10% | 0% | 0% | 20%
CC(C)(/C(F)=C/Cc1ccc(F)c(Oc2ccccc2)c1)c1ccc(Cl)cc1 [Compound 2, 4-(p-Chlorophenyl)-3-fluoro-1-(4-fluoro-3-phenoxyphenyl)-4-methyl-2-pentene, (Z)-] | 5% | 0% | 0% | 22% | 10% | 32% | 58% | 100%
CC(C)(C(F)=CCc1cccc(Oc2ccccc2)c1)c1ccc(Cl)cc1 [Compound 1, 4-(p-Chlorophenyl)-3-fluoro-4-methyl-1-(m-phenoxyphenyl)-2-pentene, (Z)- and (E)-(95:5)] | 5% | 5% | 10% | 0% | 10% | 20% | 35% | 53%
F/C(=C\Cc1cccc(Oc2ccccc2)c1)C(c1ccc(F)cc1)C1CC1 (racemic) [Compound 15, 1-[2-Fluoro-1-(p-fluorophenyl)-4-(m-phenoxyphenyl)-2-butenyl]cyclopropane, (R,S)-(Z)-] | – | 44% | 80% | 100% | – | 78% | 100% | 100%
